Measurements published in US20230000813A1, “COMPOUND FOR THE TREATMENT OF BOVINE OR SWINE RESPIRATORY DISEASE” (Intervet Inc., priority 2016, published 2023).
“And” between values parts separate entries of the source, which are not always exact repeats. Identical values can stand only once.

What was measured:
[1] = tested on: M. haemolytica M7/2, serotype A:1, ID 6357; test: Mannheimia haemolytica cattle lung infection model, efficacy (Example 8); format: in vivo, Holstein black pied cattle calves; design: key to General behavior, score: 0 = normal; 1 = slightly depressive; 2 = moderately depressive; 3 = highly depressive; 4 = recumbency; key to Re-isolation of bacteria, Left Bronchial swab / Re-isolation of bacteria, Right Bronchial swab: − no bacterial growth; + low; ++ medium; +++ high amount of bacterial growth; conditions: for Food consumption, cumulated for all animals in the group: 3 calves; for Lung score (including grade and percent Lung consolidation): grade of consolidation 0 to 3
Description: 15 male Holstein black pied cattle calves of ca. 4 months age were randomly assigned to the study groups ensuring an equal distribution of body weight. The animal weight was approximately 98-133.5 kg on D-1.
Calves were infected on Day 0 via intratracheal instillation of approximately 300 mL of a M. haemolytica PBS suspension containing approximately 3×10^9 CFU M. haemolytica in late log phase.
Three animals each were treated one hour after infection by subcutaneous (SC) administration of Compound 329 in an aqueous 30% (w/v) Captisol® solution for injection at a dose of 10 mg/kg BW.
The respective dose volume was injected on the sides of the thoracic wall. Injection volumes exceeding 10 mL were divided into one portion of 10 mL administered to the left side and the remaining rest administered at different injection sites on the other side. Animals in one control group were treated with a commercially available Enrofloxacin solution (Baytril ® 10%, Bayer Animal Health) at the recommended dose of 10 mg/kg BW. The second control group was treated with the galenic diluent (30% (w/v) Captisol®, dissolved in water) as placebo.
Food consumption was measured. Single individual blood samples were collected from the 12 animals at the following time points: D-1 (predose), 30 minutes, 2, 4, 6, 24 h and at D2 (ca. 45 h) after administration. After the day 2 blood sampling, the infected cattle were slaughtered. The lungs were weighted. Lung states and lung scores were observed morphologically.
At necropsy from animals treated with test items or the positive control, samples of epithelial lining fluid (ELF), lung tissue, and additionally tissue of liver and kidney were collected. From each lung two bacteriological swaps were taken from the left and right bronchus.
From each lung two tissue samples were collected by clipping from at least two locations, one from morphologically unchanged tissue, one from the edge of pathomorphologically changed areas.

M. haemolytica M7/2 = test: Mannheimia haemolytica cattle lung infection model, efficacy (Example 9); format: in vivo, cattle calves; conditions: 3 calves, SC 10 mg/kg BW
Description: Unless otherwise described the study was conducted as described in Example 8.
(§1) Calves were infected via intratracheal instillation of appr. 300 mL of M. haemolytica PBS suspension containing approximately 4×10^9 CFU M. haemolytica in late log phase on Day 0.
(§2) The following clinical findings were recorded: The general behavior scores of the animals before (DO am) and after infection with M. haemolytica in the different treated and control groups are indicated in FIG. 7-1: 0 =normal; 1=slightly depressive, 2=moderately depressive, 3=highly depressive, 432 recumbency.
The following pathomorphological findings after section on Day 2 were recorded: After measuring the body weight and the lung weight the Lung body mass ratio was calculated as shown in FIG. 7-2. A healthy animal has a lung body mass ration around 1.7 or lower. The area percentage of lung consolidations compared to the total lung tissue and the lung score determined that is a combined score of such percentage of lung consoldiations and the grade. For the “grade” the degree of lung consolidation score was graded from 0 to 3 for each of eight lung lobes: 0 no visible changes, 1 low graded colour changes or induration, 2 medium graded induration, 3 high graded induration, hepatisation, necrosis.
The geometrical means (CFU/g tissue) of bacteriological re-isolations of Mannheimia haemolytica from lung tissue are illustrated in FIG. 7-4.

M. haemolytica = test: Mannheimia haemolytica cattle lung infection model, efficacy (Example 10); format: in vivo, cattle calves; conditions: 3 calves, 10 mg/kg
Description: Unless otherwise described the study was conducted as described in Clinical Example 8
as §1
One hour later three animals each were treated with 10 mg/kg of Compound 231(referred to as C. 231) (80 mg/mL in 10% Poloxamer 188), or 10 mg/kg or 5 mg/kg Compound 329 (referred to as C. 329) (150 mg/mL in 35% Cavitron).
as §2, with “8-1: 0=normal;” for “7-1: 0 =normal;”, “4=recumbency.” for “432 recumbency.”
The following pathomorphological findings after section on Day 2 were recorded: After measuring the body weight and the lung weight the Lung body mass ratio was calculated as shown in FIG. 8-2. A healthy animal has a lung body mass ration around 1.7 or lower. The area percentage of lung consolidations compared to the total lung tissue and the lung score determined that is a combined score of such percentage of lung consoldiations and the grade. For the “grade” the degree of lung consolidation score was graded from 0 to 3 for each of eight lung lobes: 0 no visible changes, 1 low graded colour changes or induration, 2 medium graded induration, 3 high graded induration, hepatisation, necrosis.
The geometrical means (CFU/g tissue) of bacteriological re-isolations of Mannheimia haemolytica from lung tissue are illustrated in FIG. 8-4.

[2] = section on day 2, infected calves, SC 10 mg/kg, individual animals and mean, 10 mg/kg
[3] = section on day 2, infected calves, SC 10 mg/kg, individual animals and mean, 10 mg/kg, mean
[4] = section on day 2, infected calves, SC single 10 mg/kg, individual animals
[5] = D 0 am, after infection and treatment

With `CCN1CCN(c2cc3c(cc2F)c(=O)c(C(=O)O)cn3C2CC2)CC1` [Enrofloxacin, reference compound] the “General behavior, score” value ([1]; D 0 am (before infection), calves, SC 10 mg/kg, individual animals and mean, 10 mg/kg) was 0, the “General behavior, score” value ([1]; D 0 am (before infection), calves, SC 10 mg/kg, individual animals and mean, 10 mg/kg, mean) was 0.0 score and the “Food consumption, cumulated for all animals in the group” value (from here on “Food consumption, cumulated”) ([1]; D 0 am, after infection and treatment, SC 10 mg/kg) was 660 g. The “Food consumption, cumulated” value ([1]; D 0 pm, SC 10 mg/kg) was 4800 g, the “General behavior, score” value ([1]; D 0 pm, calves infected with M. haemolytica, SC 10 mg/kg 1 h after infection, individual animals and mean, 10 mg/kg) was 0 and the “General behavior, score” value ([1]; D 0 pm, calves infected with M. haemolytica, SC 10 mg/kg 1 h after infection, individual animals and mean, 10 mg/kg, mean) was 0.0 score. The “General behavior, score” value ([1]; D 1 am, calves infected with M. haemolytica, SC 10 mg/kg 1 h after infection, individual animals and mean, 10 mg/kg) was 0, the “General behavior, score” value ([1]; D 1 am, calves infected with M. haemolytica, SC 10 mg/kg 1 h after infection, individual animals and mean, 10 mg/kg, mean) was 0.0 score and the “General behavior, score” value ([1]; D 1 pm, calves infected with M. haemolytica, SC 10 mg/kg 1 h after infection, individual animals and mean, 10 mg/kg) was 0. The “General behavior, score” value ([1]; D 1 pm, calves infected with M. haemolytica, SC 10 mg/kg 1 h after infection, individual animals and mean, 10 mg/kg, mean) was 0.0 score, the “General behavior, score” value ([1]; D 2 am, calves infected with M. haemolytica, SC 10 mg/kg 1 h after infection, individual animals and mean, 10 mg/kg) was 0 and the “General behavior, score” value ([1]; D 2 am, calves infected with M. haemolytica, SC 10 mg/kg 1 h after infection, individual animals and mean, 10 mg/kg, mean) was 0.0 score. The “Food consumption, cumulated” value ([1]; D +1 am, SC 10 mg/kg) was 4800 g, the “Food consumption, cumulated” value ([1]; D +1 pm, SC 10 mg/kg) was 4800 g and the “Food consumption, cumulated” value ([1]; D −1 (before infection), SC 10 mg/kg) was 4800 g. The mean bacterial re-isolation ([1]; infected calves, SC 10 mg/kg, in words) was “Very low”, the “Lung score (including grade and percent Lung consolidation)” value [1, 2] was 21.2 and 16.9 and 20.4 and the “Lung score (including grade and percent Lung consolidation)” value [1, 3] was 19.5. The Lung consolidations [1, 2] was 13.0% and 10.8% and 15.3%, the Lung weight [1, 2] was 1334 g and 1765 g and 1429 g and the Lung/body weight ratio [1, 2] was ~1.3% and 1.31% and 1.34% and 1.21% and 1.29%. The Lung consolidations [1, 3] was 13.0%, the Lung weight [1, 3] was 1509 g and the “Re-isolation of bacteria, Left Bronchial swab” value [1, 4] was “−”. The “Re-isolation of bacteria, Right Bronchial swab” value [1, 4] was “−”, the “Food consumption, cumulated” value (M. haemolytica M7/2; [5]) was 4027 g and the “Food consumption, cumulated” value (M. haemolytica M7/2; D 0 pm) was 4800 g. For the same compound, the “Food consumption, cumulated” value (M. haemolytica M7/2; D +1 am) was 4737 g, the “Food consumption, cumulated” value (M. haemolytica M7/2; D +1 pm) was 4800 g and the “Food consumption, cumulated” value (M. haemolytica M7/2; D −1 (before infection)) was 4800 g. The “Food consumption, cumulated” value (M. haemolytica; [5]) was 1667 g, the “Food consumption, cumulated” value (M. haemolytica; D 0 pm) was 4800 g and the “Food consumption, cumulated” value (M. haemolytica; D +1 am) was 4800 g. The “Food consumption, cumulated” value (M. haemolytica; D +1 pm) was 4800 g and the “Food consumption, cumulated” value (M. haemolytica; D −1 (before infection)) was 4800 g.
